Results: patent US20240299361A1, “VETERINARY TRANSDERMAL GEL COMPRISING ONDANSETRON, AND RELATED METHODS” (Verté Therapeutics, LLC, priority 2023, published 2024)
Where a name gives a salt, the structure may show the parent alone.

Assay: Visual solubility screen for Ondansetron HCl in solvents/excipients
Assay type: physicochemical
Experimental: The purpose of this study was to evaluate the solubility of Ondansetron HCl in an array of solvents/excipients to develop a stable topical formulation for transdermal application in cats and dogs. In this screen, evaluation of solubility was determined by visual examination only.
The following procedure was used to determine solubility of the API (Ondansetron HCl): • a. Label 20 mL USP Type I scintillation vials appropriately for each solvent/solvent blend that will be tested. Although API is light sensitive, clear glass vials will be used, as the study is a visual assessment only. • b. Place a stir bar in each vial. Weigh the empty vial containing stir bar and cap with inert liner. Record the tare weight. • c. Weigh approximately 3.0 g of each solvent into the designated vial. • d. Weigh approximately 30.0 mg of the API into each vial. • e. Place all closed vials on a stir plate and allow mixing for at least 30 minutes at ambient conditions. • f. Visually inspect to see if the API has completely dissolved. Record the stir time and observations. • g. If the API has dissolved, repeat steps d to f until saturation solubility is achieved or up to 10% w/w. • h. Record additional API aliquots added to the mixture. Continue stirring solutions overnight at ambient temperature to confirm solubility is maintained. • i. Record the final weight of the vial, cap, stir bar, and sample to calculate the total amount of active and/or solvent added at room temperature. • j. Heat (if applicable) all the vials in which API is not soluble to 65° C. for 1 hour and check the solubility. Allow them to cool to room temperature and check for any precipitation in the vials in which API was soluble when heated. Perform microscopy as deemed necessary. • k. Confirm the pH of buffer solutions after addition and solubilization (if applicable) of the API. • l. Record final observations and take pictures as needed to document the observations.
Upon addition of Ondansetron HCl to each solvent, vials were subjected to stirring at room temperature at 400 RPM.
For the secondary solvent solubility screen, solvents which required heating as primary systems were blended at a 1:1 ratio with other solubilizers being screened.

Solubility (visual) (in Citrate buffer USP (pH 3.0), without heating): at least 1 % w/w
Solubility achieved (visual) (in DMSO): ≥ 10%
Solubility (visual) (in DMSO, without heating): at least 1 % w/w
Solubility (visual) (in PEG 400, without heating): at least 1 % w/w
Solubility (visual) (in absolute alcohol, without heating): at least 1 % w/w
Solubility achieved (visual) (in benzyl alcohol): ≥ 10%
Solubility (visual) (in benzyl alcohol, without heating): at least 1 % w/w
Solubility (visual) (in diethylene glycol monoethyl ether, without heating): at least 1 % w/w
Solubility achieved (visual) (in propylene glycol): ≥ 10%
Solubility (visual) (in propylene glycol, without heating): at least 1 % w/w
Compound: Cc1nccn1CC1CCc2c(c3ccccc3n2C)C1=O (stereo not shown) [Ondansetron HCl]
